Among the data in patent US8742129B2, “Crystalline forms of febuxostat” (Teva Pharmaceuticals Industries Ltd., priority 2009, dated 2014) are solubility in ethanol values, retold here.

The data set is described as follows: Solubility in ethanol of crystalline forms. The class given is physicochemical. The conditions noted are these: compared to other crystalline forms.

Take `Cc1nc(-c2ccc(OCC(C)C)c(C#N)c2)sc1C(=O)O` [Febuxostat form F10, 2-(3-cyano-4-isobutyloxyphenyl)-4-methylthiazole-5-carboxylic acid]: the solubility in ethanol entry is “better solubility in ethanol compared to other crystalline forms”.
